Test results as given in publication PMC10487430, “Dual Modulator of ASIC Channels and GABAA Receptors from Thyme Alters Fear-Related Hippocampal Activity” (International Journal of Molecular Sciences, 2023).

Legend:
rat ASIC1a (rASIC1a) = biological target: T1, rat ASIC1a (rASIC1a) (Rattus norvegicus, UniProt P55926); test: two-electrode voltage clamp in Xenopus oocytes; inhibition of pH […].0-induced currents; type: cell-based
T1 construct: gene Asic1; homomeric rat ASIC1a expressed in Xenopus laevis oocytes
T1 sequence (P55926 1-526): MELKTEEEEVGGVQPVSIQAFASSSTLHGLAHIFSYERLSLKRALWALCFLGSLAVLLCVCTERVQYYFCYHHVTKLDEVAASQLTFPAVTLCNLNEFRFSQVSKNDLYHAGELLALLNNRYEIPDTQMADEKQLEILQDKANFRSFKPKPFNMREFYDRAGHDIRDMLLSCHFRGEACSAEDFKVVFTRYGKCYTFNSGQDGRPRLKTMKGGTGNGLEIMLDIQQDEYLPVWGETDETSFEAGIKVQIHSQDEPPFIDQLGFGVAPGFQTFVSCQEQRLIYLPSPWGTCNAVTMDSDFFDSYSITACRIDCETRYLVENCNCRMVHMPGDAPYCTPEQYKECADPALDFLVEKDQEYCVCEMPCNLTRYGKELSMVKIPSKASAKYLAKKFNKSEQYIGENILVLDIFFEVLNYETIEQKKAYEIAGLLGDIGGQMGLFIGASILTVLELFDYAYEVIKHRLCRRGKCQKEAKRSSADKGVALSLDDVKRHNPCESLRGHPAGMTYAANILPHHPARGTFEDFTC

α1β2γ2 GABAA receptor = biological target: T2, α1β2γ2 GABAA receptor (Mus musculus, UniProt P22723+P62812+P63137); test: two-electrode voltage clamp in Xenopus oocytes; potentiation of currents induced by […] GABA; type: cell-based
T2 construct: gene Gabra1; murine α1, β2, and γ2 GABAA subunits expressed in Xenopus laevis oocytes; with GABAA receptor β2 (Gabrb2) and γ2 (Gabrg2) subunits
T2 sequence (P62812 28-455): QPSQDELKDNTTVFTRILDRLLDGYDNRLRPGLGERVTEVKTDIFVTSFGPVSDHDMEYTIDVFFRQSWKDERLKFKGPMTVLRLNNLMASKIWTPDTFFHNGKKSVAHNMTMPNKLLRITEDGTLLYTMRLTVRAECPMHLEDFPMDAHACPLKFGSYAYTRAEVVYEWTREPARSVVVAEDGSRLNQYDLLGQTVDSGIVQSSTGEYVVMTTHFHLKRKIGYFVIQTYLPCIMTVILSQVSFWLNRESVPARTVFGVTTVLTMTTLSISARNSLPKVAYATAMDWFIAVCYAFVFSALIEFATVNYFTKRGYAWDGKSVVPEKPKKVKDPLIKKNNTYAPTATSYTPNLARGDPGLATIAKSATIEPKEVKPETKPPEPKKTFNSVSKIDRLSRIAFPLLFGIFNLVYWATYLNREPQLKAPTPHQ
T2 sequence (P63137 26-512): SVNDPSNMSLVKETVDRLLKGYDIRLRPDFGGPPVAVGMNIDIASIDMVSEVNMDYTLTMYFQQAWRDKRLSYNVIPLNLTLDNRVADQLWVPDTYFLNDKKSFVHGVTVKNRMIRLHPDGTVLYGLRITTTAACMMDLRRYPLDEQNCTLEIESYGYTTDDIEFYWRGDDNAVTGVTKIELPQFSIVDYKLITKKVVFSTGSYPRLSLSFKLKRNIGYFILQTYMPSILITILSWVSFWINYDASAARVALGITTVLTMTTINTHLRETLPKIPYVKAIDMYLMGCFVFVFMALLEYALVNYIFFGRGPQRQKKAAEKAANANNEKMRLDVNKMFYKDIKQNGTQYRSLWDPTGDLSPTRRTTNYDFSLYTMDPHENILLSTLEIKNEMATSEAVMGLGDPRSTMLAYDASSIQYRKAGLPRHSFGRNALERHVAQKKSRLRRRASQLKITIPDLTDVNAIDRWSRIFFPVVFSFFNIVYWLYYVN
T2 sequence (P22723 39-474): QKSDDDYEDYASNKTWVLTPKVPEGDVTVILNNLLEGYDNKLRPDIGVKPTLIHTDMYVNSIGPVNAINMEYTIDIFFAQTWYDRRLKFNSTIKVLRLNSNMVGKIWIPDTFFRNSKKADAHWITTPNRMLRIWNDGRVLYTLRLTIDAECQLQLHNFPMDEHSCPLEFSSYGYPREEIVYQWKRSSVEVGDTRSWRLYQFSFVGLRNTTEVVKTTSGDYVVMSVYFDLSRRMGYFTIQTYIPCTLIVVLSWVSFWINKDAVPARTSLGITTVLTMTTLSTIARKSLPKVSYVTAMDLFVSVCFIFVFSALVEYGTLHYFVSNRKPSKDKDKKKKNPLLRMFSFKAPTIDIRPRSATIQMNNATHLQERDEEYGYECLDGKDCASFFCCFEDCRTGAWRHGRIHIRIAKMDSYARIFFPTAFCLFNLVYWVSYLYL

IC50 (rat ASIC1a (rASIC1a)): 198 ± 19 µM | EC50 (α1β2γ2 GABAA receptor): 0.56 ± 0.04 µM
Structure (SMILES): O=C(O)C[C@H](C(=O)O)[C@H](OC(=O)[C@@H]1C(C(=O)O[C@@H](C(=O)O)[C@@H](CC(=O)O)C(=O)O)=Cc2cc(O)c(O)cc2[C@H]1c1ccc(O)c(O)c1)C(=O)O [sevanol]
